From PubChem BioAssay AID2060900 (Molecular Pharmacology Branch, DTP, NCI, 2025)

Test system: 521955-158-R2-J5-PDC complex spheroids, viability
Assay: Anticancer human tumor 521955-158-R2-J5-PDC patient-derived pancreatic carcinoma cell line growth inhibition [RAS]
Details: for viability, T/C: stronger effect = lower value
In short: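 Multi-cell-type spheroids: tumor cells plus HUVEC endothelial cells and mesenchymal stem cells. RAS-pathway inhibitors were combined with targeted agents, each dosed in half-log steps down from clinical Cmax, or from 10 microM when Cmax was unknown.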

[1] = curve of first compound, second compound 0.000949 µM
[2] = curve of first compound, second compound 0.003 µM
[3] = curve of first compound, second compound 0.00949 µM
[4] = curve of first compound, second compound 0.03 µM
[5] = curve of first compound, second compound 0.0949 µM
[6] = curve of first compound, second compound 0.3 µM
[7] = second compound 0.000949 µM, first compound 0.0316 µM
[8] = second compound 0.000949 µM, first compound 0.1 µM
[9] = second compound 0.000949 µM, first compound 0.316 µM
[10] = second compound 0.000949 µM, first compound 1 µM
[11] = second compound 0.003 µM, first compound 0.0316 µM
[12] = second compound 0.003 µM, first compound 0.1 µM
[13] = second compound 0.003 µM, first compound 0.316 µM
[14] = second compound 0.003 µM, first compound 1 µM
[15] = second compound 0.00949 µM, first compound 0.0316 µM
[16] = second compound 0.00949 µM, first compound 0.1 µM
[17] = second compound 0.00949 µM, first compound 0.316 µM
[18] = second compound 0.00949 µM, first compound 1 µM
[19] = second compound 0.03 µM, first compound 0.0316 µM
[20] = second compound 0.03 µM, first compound 0.1 µM
[21] = second compound 0.03 µM, first compound 0.316 µM
[22] = second compound 0.03 µM, first compound 1 µM
[23] = second compound 0.0949 µM, first compound 0.0316 µM
[24] = second compound 0.0949 µM, first compound 0.1 µM
[25] = second compound 0.0949 µM, first compound 0.316 µM
[26] = second compound 0.0949 µM, first compound 1 µM
[27] = second compound 0.3 µM, first compound 0.0316 µM
[28] = second compound 0.3 µM, first compound 0.1 µM
[29] = second compound 0.3 µM, first compound 0.316 µM
[30] = second compound 0.3 µM, first compound 1 µM
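Note: compound exposure lasted seven days before the viability read.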
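Throughout, for viability, T/C: spheroids also contain HUVEC endothelial cells and mesenchymal stem cells as stroma.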

## C=CC(=O)Nc1cc(Nc2nccc(-c3cn(C)c4ccccc34)n2)c(OC)cc1N(C)CCN(C)C + CCn1c(-c2cccnc2C(C)OC)c2c3cc(ccc31)N1CCOC(CC(NC(=O)C(C(C)C)N(C)C(=O)C3(F)CCN(C(=O)C#CC(C)(C)N(C)C)CC3)C(=O)N3CCCC(N3)C(=O)OCC(C)(C)C2)C1
[1]
  IC50: 0.504 µM
[2]
  IC50: 0.755 µM
[3]
  IC50: 0.493 µM
[4]
  IC50: 0.416 µM
[5]
  IC50: 0.441 µM
[6]
  IC50: 0.176 µM
Second compound 0.000949 µM, first compound 0.00316 µM
  viability, T/C: 89.9%
Second compound 0.000949 µM, first compound 0.01 µM
  viability, T/C: 84.1%
[7]
  viability, T/C: 84.1%
[8]
  viability, T/C: 72.6%
[9]
  viability, T/C: 59%
[10]
  viability, T/C: 37.1%
Second compound 0.003 µM, first compound 0.00316 µM
  viability, T/C: 110%
Second compound 0.003 µM, first compound 0.01 µM
  viability, T/C: 82.6%
[11]
  viability, T/C: 71.8%
[12]
  viability, T/C: 65.3%
[13]
  viability, T/C: 59.2%
[14]
  viability, T/C: 44.1%
Second compound 0.00949 µM, first compound 0.00316 µM
  viability, T/C: 101%
Second compound 0.00949 µM, first compound 0.01 µM
  viability, T/C: 91.5%
[15]
  viability, T/C: 88.6%
[16]
  viability, T/C: 75.4%
[17]
  viability, T/C: 61.4%
[18]
  viability, T/C: 34.1%
Second compound 0.03 µM, first compound 0.00316 µM
  viability, T/C: 88.6%
Second compound 0.03 µM, first compound 0.01 µM
  viability, T/C: 79.2%
[19]
  viability, T/C: 80%
[20]
  viability, T/C: 70.8%
[21]
  viability, T/C: 51.8%
[22]
  viability, T/C: 41%
Second compound 0.0949 µM, first compound 0.00316 µM
  viability, T/C: 86.3%
Second compound 0.0949 µM, first compound 0.01 µM
  viability, T/C: 95.8%
[23]
  viability, T/C: 70%
[24]
  viability, T/C: 70.2%
[25]
  viability, T/C: 56.6%
[26]
  viability, T/C: 36.9%
Second compound 0.3 µM, first compound 0.00316 µM
  viability, T/C: 70.2%
Second compound 0.3 µM, first compound 0.01 µM
  viability, T/C: 79.2%
[27]
  viability, T/C: 72%
[28]
  viability, T/C: 55.4%
[29]
  viability, T/C: 45.3%
[30]
  viability, T/C: 36.9%

## CCC(CC)c1cc(NC2CCC(N)C2)n2nccc2n1 (stereo not given)
Compound 0.0316 µM
  viability, T/C: 110% [middle of 4 runs]
Compound 0.1 µM
  viability, T/C: 91.2% [middle of 4 runs]
Compound 0.316 µM
  viability, T/C: 122% [middle of 4 runs]
Compound 1 µM
  viability, T/C: 111% [middle of 4 runs]
Compound 3.16 µM
  viability, T/C: 9.87% [middle of 4 runs]
Compound 10 µM
  viability, T/C: 10.2% [middle of 4 runs]
Curve of compound
  IC50: 1.97 µM [middle of 4 runs]

## O=C(c1ccc(F)c(F)c1Nc1ccc(I)cc1F)N1CC(O)([C@@H]2CCCCN2)C1
Compound 0.00316 µM
  viability, T/C: 82% [middle of 4 runs]
Compound 0.01 µM
  viability, T/C: 71% [middle of 4 runs]
Compound 0.0316 µM
  viability, T/C: 51.7% [middle of 4 runs]
Compound 0.1 µM
  viability, T/C: 42.8% [middle of 4 runs]
Compound 0.316 µM
  viability, T/C: 33.9% [middle of 4 runs]
Compound 1 µM
  viability, T/C: 23.6% [middle of 4 runs]
Curve of compound
  IC50: 40.1 nM [middle of 4 runs]

## CC(C)NCC(C(=O)N1CCN(c2ncnc3c2C(C)CC3O)CC1)c1ccc(Cl)cc1 (stereo not given) + CCn1c(-c2cc(N3CCN(C)CC3)cnc2C(C)OC)c2c3cc(ccc31)-c1csc(n1)CC(NC(=O)C1CC1C)C(=O)N1CCCC(N1)C(=O)OCC(C)(C)C2
[1]
  IC50: < 0.0316 µM
[2]
  IC50: < 0.0316 µM
[3]
  IC50: < 0.0316 µM
[4]
  IC50: < 0.0316 µM
[5]
  IC50: < 0.0316 µM
[6]
  IC50: < 0.0316 µM
[7]
  viability, T/C: 33.8%
[8]
  viability, T/C: 38.8%
[9]
  viability, T/C: 35.5%
[10]
  viability, T/C: 23%
Second compound 0.000949 µM, first compound 3.16 µM
  viability, T/C: 15.5%
Second compound 0.000949 µM, first compound 10 µM
  viability, T/C: 18.1%
[11]
  viability, T/C: 41.8%
[12]
  viability, T/C: 37%
[13]
  viability, T/C: 36%
[14]
  viability, T/C: 15%
Second compound 0.003 µM, first compound 3.16 µM
  viability, T/C: 6.94%
Second compound 0.003 µM, first compound 10 µM
  viability, T/C: 11.1%
[15]
  viability, T/C: 38.7%
[16]
  viability, T/C: 33.9%
[17]
  viability, T/C: 28%
[18]
  viability, T/C: 8.72%
Second compound 0.00949 µM, first compound 3.16 µM
  viability, T/C: 4.36%
Second compound 0.00949 µM, first compound 10 µM
  viability, T/C: 7.59%
[19]
  viability, T/C: 20.9%
[20]
  viability, T/C: 21.9%
[21]
  viability, T/C: 16.6%
[22]
  viability, T/C: 5.37%
Second compound 0.03 µM, first compound 3.16 µM
  viability, T/C: 5.01%
Second compound 0.03 µM, first compound 10 µM
  viability, T/C: 1.08%
[23]
  viability, T/C: 11.8%
[24]
  viability, T/C: 13.1%
[25]
  viability, T/C: 8.25%
[26]
  viability, T/C: 4.84%
Second compound 0.0949 µM, first compound 3.16 µM
  viability, T/C: 4.83%
Second compound 0.0949 µM, first compound 10 µM
  viability, T/C: 1.9%
[27]
  viability, T/C: 10.5%
[28]
  viability, T/C: 11%
[29]
  viability, T/C: 8.33%
[30]
  viability, T/C: 2.49%
Second compound 0.3 µM, first compound 3.16 µM
  viability, T/C: 4.32%
Second compound 0.3 µM, first compound 10 µM
  viability, T/C: 1.07%

## CC(C)NCC(C(=O)N1CCN(c2ncnc3c2C(C)CC3O)CC1)c1ccc(Cl)cc1 (stereo not given) + C#Cc1c(F)ccc2cc(O)cc(-c3ncc4c(N5CC6CCC(C5)N6)nc(OCC56CCCN5CC(F)C6)nc4c3F)c12
Curve of first compound, second compound 0.0316 µM
  IC50: 0.0491 µM
Curve of first compound, second compound 0.1 µM
  IC50: < 0.0316 µM
Curve of first compound, second compound 0.316 µM
  IC50: < 0.0316 µM
Curve of first compound, second compound 1 µM
  IC50: < 0.0316 µM
Curve of first compound, second compound 3.16 µM
  IC50: < 0.0316 µM
Curve of first compound, second compound 10 µM
  IC50: < 0.0316 µM
Second compound 0.0316 µM, first compound 0.0316 µM
  viability, T/C: 55.1%
Second compound 0.0316 µM, first compound 0.1 µM
  viability, T/C: 40%
Second compound 0.0316 µM, first compound 0.316 µM
  viability, T/C: 36.9%
Second compound 0.0316 µM, first compound 1 µM
  viability, T/C: 15.6%
Second compound 0.0316 µM, first compound 3.16 µM
  viability, T/C: 10.7%
Second compound 0.0316 µM, first compound 10 µM
  viability, T/C: 10.4%
Second compound 0.1 µM, first compound 0.0316 µM
  viability, T/C: 45.7%
Second compound 0.1 µM, first compound 0.1 µM
  viability, T/C: 54.2%
Second compound 0.1 µM, first compound 0.316 µM
  viability, T/C: 26.8%
Second compound 0.1 µM, first compound 1 µM
  viability, T/C: 13.4%
Second compound 0.1 µM, first compound 3.16 µM
  viability, T/C: 8.3%
Second compound 0.1 µM, first compound 10 µM
  viability, T/C: 8.31%
Second compound 0.316 µM, first compound 0.0316 µM
  viability, T/C: 43.6%
Second compound 0.316 µM, first compound 0.1 µM
  viability, T/C: 43.2%
Second compound 0.316 µM, first compound 0.316 µM
  viability, T/C: 29.1%
Second compound 0.316 µM, first compound 1 µM
  viability, T/C: 11.7%
Second compound 0.316 µM, first compound 3.16 µM
  viability, T/C: 7.83%
Second compound 0.316 µM, first compound 10 µM
  viability, T/C: 6.31%
Second compound 1 µM, first compound 0.0316 µM
  viability, T/C: 43.8%
Second compound 1 µM, first compound 0.1 µM
  viability, T/C: 45.2%
Second compound 1 µM, first compound 0.316 µM
  viability, T/C: 26.9%
Second compound 1 µM, first compound 1 µM
  viability, T/C: 12.7%
Second compound 1 µM, first compound 3.16 µM
  viability, T/C: 6.2%
Second compound 1 µM, first compound 10 µM
  viability, T/C: 4.69%
Second compound 3.16 µM, first compound 0.0316 µM
  viability, T/C: 43.4%
Second compound 3.16 µM, first compound 0.1 µM
  viability, T/C: 38.2%
Second compound 3.16 µM, first compound 0.316 µM
  viability, T/C: 22%
Second compound 3.16 µM, first compound 1 µM
  viability, T/C: 8.28%
Second compound 3.16 µM, first compound 3.16 µM
  viability, T/C: 5.14%
Second compound 3.16 µM, first compound 10 µM
  viability, T/C: 3.32%
Second compound 10 µM, first compound 0.0316 µM
  viability, T/C: 32.3%
Second compound 10 µM, first compound 0.1 µM
  viability, T/C: 27%
Second compound 10 µM, first compound 0.316 µM
  viability, T/C: 15.1%
Second compound 10 µM, first compound 1 µM
  viability, T/C: 7.44%
Second compound 10 µM, first compound 3.16 µM
  viability, T/C: 3.67%
Second compound 10 µM, first compound 10 µM
  viability, T/C: 1.98%
